Measurements published in patent US20260258022A1, “NOVEL HETEROCYCLIC-SUBSTITUTED PYRIMIDINE DERIVATIVE EXHIBITING CANCER CELL GROWTH INHIBITORY EFFECT, AND PHARMACEUTICAL COMPOSITION CONTAINING SAME” (ONCOBIX CO., LTD., priority 2021, published 2026).
pIC50: −log10 of the molar value.

How the values were obtained:
ALK = ALK (Homo sapiens, UniProt Q9UM73); assay: Kinase inhibitory activity, [33P]-ATP filter assay, ALK; format: biochemical; settings: wild-type ALK kinase, scintillation counting
Experimental: (§1) For the compounds of Examples 1 to 8 above, the inhibitory activity against ALK, ALK mutation (ALK(G1202R)), and […] (ALK(L1196M)) was measured, and the results are shown in Table 1 below. […] Crizotinib […] was used as a control drug. • 1. Each kinase was incubated under 8 mM MOPS, pH 7.0, 0.2 mM EDTA, 250 μM KKKGQEEEYVFIE, 1 mM sodium orthovanadate, 5 mM sodium-6-glycerophosphate, 10 mM Magnesium acetate, [^33P]-ATP. • 2. The reaction proceeded by adding the evaluation compound (DMSO solution) and Mg/ATP. • 3. After about 40 minutes at room temperature, the reaction was terminated by adding 10 μL of 0.5% phosphoric acid. • 4. The reaction solution was divided into 0.5% 10 μL and spotted on a P30 filtermat. • 5. It was washed four times with 0.425% phosphoric acid for about 4 minutes. After washing once with methanol, it was dried and analyzed by scintillation counting to measure the IC50 value.

ALK(L1196M) = ALK(L1196M) (Homo sapiens, UniProt Q9UM73, L1196M); assay: Kinase inhibitory activity, [33P]-ATP filter assay, ALK(L1196M); format: biochemical; settings: ALK point mutant kinase, scintillation counting
Sequence of ALK(L1196M) (Q9UM73 19-1620 L1196M): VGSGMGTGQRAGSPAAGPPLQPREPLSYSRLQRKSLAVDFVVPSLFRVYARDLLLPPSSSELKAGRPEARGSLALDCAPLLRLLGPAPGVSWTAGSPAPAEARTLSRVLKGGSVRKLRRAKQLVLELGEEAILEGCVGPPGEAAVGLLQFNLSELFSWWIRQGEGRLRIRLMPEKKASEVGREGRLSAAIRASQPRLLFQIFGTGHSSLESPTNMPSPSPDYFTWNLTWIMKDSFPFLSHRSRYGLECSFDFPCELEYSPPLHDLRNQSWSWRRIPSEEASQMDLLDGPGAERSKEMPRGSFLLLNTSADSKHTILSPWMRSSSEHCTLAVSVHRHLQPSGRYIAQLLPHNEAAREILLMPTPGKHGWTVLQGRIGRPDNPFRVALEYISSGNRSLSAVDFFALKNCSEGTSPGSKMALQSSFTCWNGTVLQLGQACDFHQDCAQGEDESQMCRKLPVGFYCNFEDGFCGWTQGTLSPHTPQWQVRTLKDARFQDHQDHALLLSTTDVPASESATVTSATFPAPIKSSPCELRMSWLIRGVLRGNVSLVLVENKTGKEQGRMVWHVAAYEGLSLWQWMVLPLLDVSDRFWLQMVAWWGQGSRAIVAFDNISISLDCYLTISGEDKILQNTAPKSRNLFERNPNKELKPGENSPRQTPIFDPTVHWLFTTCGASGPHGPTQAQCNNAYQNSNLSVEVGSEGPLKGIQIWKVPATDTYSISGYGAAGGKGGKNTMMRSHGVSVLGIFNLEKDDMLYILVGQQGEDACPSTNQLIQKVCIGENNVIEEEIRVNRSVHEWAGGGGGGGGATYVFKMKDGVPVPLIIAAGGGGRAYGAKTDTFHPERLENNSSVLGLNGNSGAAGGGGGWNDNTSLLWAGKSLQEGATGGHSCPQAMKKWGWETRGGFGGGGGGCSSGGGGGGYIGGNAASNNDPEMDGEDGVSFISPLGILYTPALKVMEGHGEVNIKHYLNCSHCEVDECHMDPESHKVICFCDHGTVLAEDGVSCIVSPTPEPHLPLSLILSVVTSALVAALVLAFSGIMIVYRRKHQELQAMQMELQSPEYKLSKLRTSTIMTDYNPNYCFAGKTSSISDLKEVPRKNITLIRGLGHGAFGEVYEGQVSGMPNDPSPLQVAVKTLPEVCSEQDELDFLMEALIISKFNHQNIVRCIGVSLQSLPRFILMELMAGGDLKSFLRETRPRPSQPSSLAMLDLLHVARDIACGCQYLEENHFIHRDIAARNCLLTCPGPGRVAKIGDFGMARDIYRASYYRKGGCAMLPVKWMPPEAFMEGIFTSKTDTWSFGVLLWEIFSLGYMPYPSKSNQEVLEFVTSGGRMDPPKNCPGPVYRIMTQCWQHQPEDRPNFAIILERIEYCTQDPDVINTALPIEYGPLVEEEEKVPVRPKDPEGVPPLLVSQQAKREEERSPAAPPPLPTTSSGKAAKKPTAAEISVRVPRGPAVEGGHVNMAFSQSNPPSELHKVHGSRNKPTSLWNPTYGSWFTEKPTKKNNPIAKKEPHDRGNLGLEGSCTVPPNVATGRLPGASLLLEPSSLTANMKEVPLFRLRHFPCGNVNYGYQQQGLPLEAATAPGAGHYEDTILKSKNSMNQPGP
Experimental: as §1

H2228 (EML4-ALK v3) = assay: Cancer cell growth inhibition, MTT assay, H2228; format: cell-based; settings: Homo sapiens, NCI-H2228, 72 hours incubation
Experimental: (§2) The growth inhibitory effects of the compounds in Examples 3, 7, and 8 above on ALK mutant cancer cell lines were measured. Anticancer efficacy activity was measured using H3122 (EML4-ALK v1) and H2228 (EML4-ALK v3) as ALK mutant cell lines by the following method.
(§3) 2×10^5 cells were seeded in a 96-well plate. 24 hours later, each of the compounds in Examples 3, 7, and 8 was treated in a dose-dependent manner, incubated for 72 hours, reacted with 15 uL MTT reagent for 4 hours, and then 100 uL 10% SDS was added thereto and incubated for 24 hours. The change in final OD was read at 595 nm. To analyze the MTT results, IC50 values were measured using prism software.
(§4) APG-2449 was used as a control drug.

H3122 (EML4-ALK v1) = assay: Cancer cell growth inhibition, MTT assay, H3122; format: cell-based; settings: Homo sapiens, NCI-H3122, 72 hours incubation
Experimental: as §2, §3, §4

ALK(G1202R) = ALK(G1202R) (Homo sapiens, UniProt Q9UM73, G1202R); assay: Kinase inhibitory activity, [33P]-ATP filter assay, ALK(G1202R); format: biochemical; settings: ALK point mutant kinase, scintillation counting
Sequence of ALK(G1202R) (Q9UM73 19-1620 G1202R): as the sequence (Q9UM73 19-1620 L1196M) above, with M1178L, G1184R counted along it
Experimental: as §1

Sequence of ALK (Q9UM73 19-1620): as the sequence (Q9UM73 19-1620 L1196M) above, with M1178L counted along it

Structure (SMILES) | pIC50 (ALK) | pIC50 (ALK(L1196M)) | pIC50 (H2228 (EML4-ALK v3)) | pIC50 (H3122 (EML4-ALK v1)) | pIC50 (ALK(G1202R))
Cc1cc(Nc2ncc(Cl)c(Nc3ccccc3S(=O)(=O)C(C)C)n2)c(OC(C)C)cc1C1=CCN(C2CCOCC2)CC1 [APG-2449, reference compound] | 9.10 | 9.05 | 7.20 | 7.06 | < 6.00
Cc1cc(Nc2ncc(Cl)c(Nc3ccccc3N(C)S(C)(=O)=O)n2)c(OC(C)C)cc1C1=CCN(C2CCOCC2)CC1 [Example 1, N-(2-((5-chloro-2-((2-isopropoxy-5-methyl-4-(1-(tetrahydro-2H-pyran-4-yl)-1,2,3,6-tetrahydropyridin-4-yl)phenyl)amino)pyrimidin-4-yl)amino)phenyl)-N-methylmethanesulfonamide] | 8.96 | 9.70 | – | – | 7.75
Cc1cc(Nc2ncc(Cl)c(Nc3ccccc3NS(C)(=O)=O)n2)c(OC(C)C)cc1C1=CCN(C2CCOCC2)CC1 [Example 2, N-(2-((5-chloro-2-((2-isopropoxy-5-methyl-4-(1-(tetrahydro-2H-pyran-4-yl)-1,2,3,6-tetrahydropyridin-4-yl)phenyl)amino)pyrimidin-4-yl)amino)phenyl)methanesulfonamide] | 8.74 | 9.22 | – | – | 7.59
Cc1cc(Nc2ncc(Cl)c(Nc3ccccc3N(C)S(=O)(=O)C3CC3)n2)c(OC(C)C)cc1C1=CCN(C2CCOCC2)CC1 [Example 3, N-(2-((5-chloro-2-((2-isopropoxy-5-methyl-4-(1-(tetrahydro-2H-pyran-4-yl)-1,2,3,6-tetrahydropyridin-4-yl)phenyl)amino)pyrimidin-4-yl)amino)phenyl)-N-methylcyclopropanesulfonamide] | 9.22 | 10.30 | 7.37 | 7.50 | 9.15
Cc1cc(Nc2ncc(Cl)c(Nc3ccccc3N(C)S(=O)(=O)C(C)C)n2)c(OC(C)C)cc1C1=CCN(C2CCOCC2)CC1 [Example 4, N-(2-((5-chloro-2-((2-isopropoxy-5-methyl-4-(1-(tetrahydro-2H-pyran-4-yl)-1,2,3,6-tetrahydropyridin-4-yl)phenyl)amino)pyrimidin-4-yl)amino)phenyl)-N-methylpropane-2-sulfonamide] | 9.05 | 9.52 | – | – | 6.79
Cc1cc(Nc2ncc(Cl)c(Nc3ccccc3N(C3CC3)S(C)(=O)=O)n2)c(OC(C)C)cc1C1=CCN(C2CCOCC2)CC1 [Example 5, N-(2-((5-chloro-2-((2-isopropoxy-5-methyl-4-(1-(tetrahydro-2H-pyran-4-yl)-1,2,3,6-tetrahydropyridin-4-yl)phenyl)amino)pyrimidin-4-yl)amino)phenyl)-N-cyclopropylmethanesulfonamide] | 8.51 | 9.30 | – | – | 6.82

Second part, the molecule after the results:

pIC50 (ALK) | pIC50 (ALK(L1196M)) | pIC50 (H2228 (EML4-ALK v3)) | pIC50 (H3122 (EML4-ALK v1)) | pIC50 (ALK(G1202R)) | Structure (SMILES)
9.22 | 8.17 | – | – | 6.60 | Cc1cc(Nc2ncc(Cl)c(Nc3ccccc3N(C(C)C)S(C)(=O)=O)n2)c(OC(C)C)cc1C1=CCN(C2CCOCC2)CC1 [Example 6, N-(2-((5-chloro-2-((2-isopropoxy-5-methyl-4-(1-(tetrahydro-2H-pyran-4-yl)-1,2,3,6-tetrahydropyridin-4-yl)phenyl)amino)pyrimidin-4-yl)amino)phenyl)-N-isopropylmethanesulfonamide]
9.30 | 10.30 | 7.77 | 7.41 | 7.98 | Cc1cc(Nc2ncc(Cl)c(Nc3ccccc3N(C)S(C)(=O)=O)n2)c(OCC(F)(F)F)cc1C1=CCN(C2CCOCC2)CC1 [Example 7, N-(2-((5-chloro-2-((5-methyl-4-(1-(tetrahydro-2H-pyran-4-yl)-1,2,3,6-tetrahydropyridin-4-yl)-2-(2,2,2-trifluoroethoxy)phenyl)amino)pyrimidin-4-yl)amino)phenyl)-N-methylmethanesulfonamide]
9.22 | 10.15 | 7.68 | 7.66 | 7.75 | Cc1cc(Nc2ncc(Cl)c(Nc3ccccc3N(C)S(N)(=O)=O)n2)c(OC(C)C)cc1C1=CCN(C2CCOCC2)CC1 [Example 8]
